Assay results as given in patent US7264932B2, “Nuclease inhibitor cocktail” (Applera Corporation, priority 1999, dated 2007).

Legend:
Assay type in all cases: biochemical
RNase A = target: T1, RNase A (Bos taurus, UniProt P61823); experiment: Radiolabeled RNA probe degradation gel assay, RNase A; settings: DTT up to 250 mM, at 37° C.
T1 sequence (P61823 27-150): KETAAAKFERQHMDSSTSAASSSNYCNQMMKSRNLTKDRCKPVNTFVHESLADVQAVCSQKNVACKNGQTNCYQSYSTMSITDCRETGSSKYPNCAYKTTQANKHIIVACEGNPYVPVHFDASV
Experimental: The activity of an anti-nuclease cocktail is readily determined using radiolabeled RNA or DNA to detect the inhibition of nuclease by anti-nuclease antibodies in the anti-nuclease cocktail. […] Assay buffer, nuclease and an anti-nuclease cocktail are then added to 0.5 ml microfuge tubes. A mixture comprising assay buffer, RNA or DNA and radiolabeled RNA or DNA is added to the microfuge tubes, and the tubes are vortexed and microfuged. After incubation of the tubes at 37° C. for 30 minutes, a portion of the tube contents is removed and placed into gel loading buffer. After mixing, the combination is loaded onto a gel, typically a 8M urea/5% acrylamide gel, which is exposed to film.
Radiolabeled RNA was used to detect the inhibition of RNase A, RNase T1, and RNase 1 by specific antibodies.
The “MIX” was prepared by combining 10× Assay Buffer (0.9 μl/rxn), 5 mg/ml yeast RNA (0.4 μl/rxn), ^32P-labeled β actin RNA (1 μl/rxn), and nuclease-free H2O (6.7 μl/rxn), for a total of 9 μl/rxn.
1× Assay Buffer was added first. Then Specific RNase Cocktail, Specific Anti-RNase Cocktail and MIX were added. The tubes are vortexed and microfuged, then incubated at 37° C. for 30 min (Table 9).
At the end of the incubation time, 10 μl of solution was removed from the tube and placed into 10 μl Gel Loading Buffer II. The combination was mixed thoroughly and loaded onto a 8M urea/5% acrylamide gel. The gel was exposed to film for 30 min. at −80° C. with an intensifying screen.

E. coli RNase 1 = E. coli RNase 1 (Escherichia coli, UniProt P21338); experiment: Radiolabeled RNA probe degradation gel assay, RNase 1; settings: 1 U RNase 1, 30 minute incubation at 37° C.
Sequence of E. coli RNase 1 (P21338 24-268): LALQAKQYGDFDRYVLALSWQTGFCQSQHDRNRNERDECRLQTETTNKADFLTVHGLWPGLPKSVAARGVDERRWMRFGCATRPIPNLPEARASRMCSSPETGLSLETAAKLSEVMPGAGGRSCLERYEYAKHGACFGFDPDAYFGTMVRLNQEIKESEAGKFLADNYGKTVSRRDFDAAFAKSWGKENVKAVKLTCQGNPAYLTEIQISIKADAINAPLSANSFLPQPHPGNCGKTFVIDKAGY
Experimental: (§1) The activity of anti-nuclease antibodies is readily determined using radiolabeled RNA or DNA to detect the inhibition of RNase or DNase by the anti-nuclease antibodies. In general, the nuclease and anti-nuclease antibody are separately diluted, typically in 1× assay buffer. Assay buffer, nuclease and anti-nuclease antibody are then added to 0.5 ml microfuge tubes. For assaying anti-RNase activity, a mixture comprising assay buffer, RNA and radiolabeled RNA is added to the microfuge tubes. The “MIX” of assay buffer, RNA and radiolabeled RNA is generally prepared by combining 10× Assay Buffer (0.9 μl/rxn), 5 mg/ml yeast RNA (0.4 μl/rxn), ^32-β actin RNA (1 μl/rxn), and nuclease-free H2O (6.7 μl/rxn) for a total of 9 μl/rxn. The tubes are vortexed and microfuged, then incubated at 37° C. for 30 minutes. After incubation, a portion of the tube contents is removed and placed into gel loading buffer. Then the tube contents and the gel loading buffer are mixed, and the combination is loaded onto a gel, typically a 8M urea/5% acrylamide gel, which is exposed to film. […]
(§2) The activity of an anti-nuclease cocktail is readily determined using radiolabeled RNA or DNA to detect the inhibition of nuclease by anti-nuclease antibodies in the anti-nuclease cocktail. […]

RNase T1 = target: T2, RNase T1 (Aspergillus oryzae, UniProt P00651); experiment: Radiolabeled RNA probe degradation gel assay, RNase T1; settings: 0.15 U RNase T1
T2 sequence (P00651 27-130): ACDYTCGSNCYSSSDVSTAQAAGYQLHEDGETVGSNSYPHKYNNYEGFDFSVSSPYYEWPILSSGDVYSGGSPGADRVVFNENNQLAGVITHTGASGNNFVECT
Experimental: as §1, §2

With `O[C@H](CS)[C@H](O)CS` (racemic) [DTT, dithiothreitol] the “inhibition of RNase A activity” value (RNase A) was “At 37° C., DTT up to 250 mM did not inhibit RNase Aactivity”, the “concentration that inhibited RNase 1” value (E. coli RNase 1) was 1–3 mM DTT inhibited 1 U RNase 1 during 30 minute incubation at 37 °C and the “concentration that inhibited RNase T1” value (RNase T1) was 5–10 mM DTT inhibited 0.15 U RNase T1.
